Consider 12 compounds from PubChem BioAssay (NCI).

Each structure is given as a SMILES string. “And” between values parts separate entries of the source, which are not always exact repeats. Equal entries are not always repeated.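 Growth conditions: 96-well plates. Treatment: test compound, 48 hours, 5 concentrations. Analysis: linear interpolation between bracketing concentrations; unreached endpoints set to highest concentration. At the GI50, growth is halved. TGI: concentration producing complete growth inhibition.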

Some test systems named below: KM20L2 colon; DMS 114 small cell lung; OVCAR-3 ovarian; U251 CNS; IGROV1 ovarian; HL-60(TB) leukemia; SR leukemia; SNB-19 CNS; XF 498 CNS; OVCAR-8 ovarian; DLD-1 colon; BT-549 breast.
Assay in all cases: growth of human tumour cells (NCI), 48 h

As to `CC1=C(C(=O)Nc2ccccc2C)C(c2ccccc2C)C(C(=O)Nc2ccccc2C)=C(C)N1`, the TGI in the test with KM20L2 colon is 38.9 µM; with DMS 114 small cell lung it was above 100 µM; with OVCAR-3 ovarian, 34.7 µM; in the test with U251 CNS, 40.3 µM; in the test with IGROV1 ovarian, 40.1 µM; in the test with HL-60(TB) leukemia, 46.5 µM. Further, the TGI in the test on SR leukemia was 65.4 µM; with SNB-19 CNS, 56.9 µM; with XF 498 CNS, 39.2 µM; with OVCAR-8 ovarian, 36.8 µM; in the test with DLD-1 colon, 33.4 µM.
Consider `O=C(O)C1CC2CC(=O)C1C2` (stereo not given), for which the TGI in the test on KM20L2 colon, with OVCAR-3 ovarian, in the test with U251 CNS, with IGROV1 ovarian, in the test with HL-60(TB) leukemia and with SR leukemia was above 100 µM throughout. The TGI in the test with SNB-19 CNS, in the test on XF 498 CNS, in the test on OVCAR-8 ovarian and with DLD-1 colon was above 100 µM in each case.
`O=c1[nH]c2c(c3ccccc13)CCc1ccccc1-2`: the TGI with KM20L2 colon, in the test with DMS 114 small cell lung, with OVCAR-3 ovarian, in the test with U251 CNS, with IGROV1 ovarian and with SR leukemia was above 100 µM each time. The TGI in the test with SNB-19 CNS and in the test on OVCAR-8 ovarian was above 100 µM throughout.
Consider `COc1cc2c3cc1Oc1c(OC)c(OC)cc4c1C(Cc1ccc(cc1)Oc1cc(ccc1O)CC3N(C)CC2)N(C)CC4` (stereo not given), for which the TGI is 24.7 µM in the test with KM20L2 colon; 24.8 µM with DMS 114 small cell lung; 29.1 µM and 62.8 µM in the test on OVCAR-3 ovarian; 23.8 µM and 30.5 µM in the test on U251 CNS; 43.8 µM and 29.4 µM with IGROV1 ovarian; 30.5 µM and 7.29 µM with HL-60(TB) leukemia. In addition, the TGI was 8.98 µM and 7.5 µM with SR leukemia; 72.7 µM and 24.7 µM in the test on SNB-19 CNS; > 100 µM and 34.8 µM with OVCAR-8 ovarian; 54.9 µM in the test on DLD-1 colon; 22.8 µM in the test on BT-549 breast. In addition, the GI50 with HL-60(TB) leukemia was 5.61 µM and 1.88 µM; in the test on SNB-19 CNS it was 28.6 µM and 12 µM.
With `CC1CC(=O)c2c(ccc3c2C(=O)c2cccc(O)c2C3=O)C1` (stereo not given), the TGI came out at 25.4 µM with DMS 114 small cell lung; 16.5 µM in the test on OVCAR-3 ovarian; 26.5 µM with U251 CNS; 18.1 µM with HL-60(TB) leukemia; 35.9 µM in the test with SR leukemia; 26.1 µM with SNB-19 CNS. The TGI was 25.1 µM in the test with XF 498 CNS, 11.1 µM in the test on OVCAR-8 ovarian and 9.56 µM with DLD-1 colon.
For `Cc1cccc(N=C2NC(=O)C(CC(=O)Nc3ccccc3Cl)S2)c1` (stereo not given), the TGI with KM20L2 colon, with DMS 114 small cell lung, in the test on OVCAR-3 ovarian, in the test on IGROV1 ovarian, in the test with HL-60(TB) leukemia and with SR leukemia was above 100 µM in each case. The TGI in the test with SNB-19 CNS, in the test with XF 498 CNS, with OVCAR-8 ovarian and with DLD-1 colon was above 100 µM each time.
As to `CCN(CC)CCC(=O)O[C@H]1CC[C@H](CC(C)[C@H]2CC(=O)C(C)C=C(C)[C@H](OC(=O)CCN(CC)CC)C(OC)C(=O)[C@@H](C)CC(C)/C=C/C=C/C=C(C)C(OC)CC3CC[C@H](C)[C@](O)(O3)C(=O)C(=O)N3CCCCC3C(=O)O2)CC1OC` (stereo not given in full), the TGI in the test with KM20L2 colon was above 4.99 µM; in the test on DMS 114 small cell lung, 1.54 µM; in the test with OVCAR-3 ovarian it was 2.27 µM and 2.19 µM; in the test on U251 CNS it was 2.34 µM and 1.9 µM; in the test on IGROV1 ovarian, 1.81 µM and 1.74 µM; in the test on HL-60(TB) leukemia, 4.48 µM and 1.16 µM. Also, the TGI was 3.46 µM and 0.618 µM in the test on SR leukemia; 7.68 µM and 2.24 µM in the test on SNB-19 CNS; 3.49 µM and 2.21 µM in the test with OVCAR-8 ovarian; 2.62 µM with DLD-1 colon; 0.946 µM in the test on BT-549 breast. Moreover, the GI50 was 0.0165 µM and 0.00456 µM with OVCAR-3 ovarian; 1.13 µM in the test with U251 CNS; 0.00595 µM with IGROV1 ovarian; 1.83 µM and 0.345 µM in the test on HL-60(TB) leukemia; 0.0358 µM in the test with SNB-19 CNS; 0.00624 µM in the test with OVCAR-8 ovarian.
Turning to `NC(=O)N/N=C(\CCC(=O)N(Cc1ccccc1)Cc1ccccc1)CC(=O)c1ccc(F)cc1`, the TGI in the test with KM20L2 colon, in the test on DMS 114 small cell lung, in the test on OVCAR-3 ovarian, in the test on U251 CNS, in the test with IGROV1 ovarian and in the test on HL-60(TB) leukemia was above 100 µM each time. The TGI in the test with SR leukemia, with SNB-19 CNS, with OVCAR-8 ovarian and in the test on DLD-1 colon was above 100 µM each time.
Turning to `COc1ccc(/C=N\O[Si](C)(C)C(C)(C)C)cc1O[Si](C)(C)C(C)(C)C`, the TGI in the test on KM20L2 colon is above 100 µM; in the test on DMS 114 small cell lung, 35.6 µM; in the test with OVCAR-3 ovarian, 31 µM; with U251 CNS, 36 µM; in the test on IGROV1 ovarian, 36 µM; with HL-60(TB) leukemia it was 38.1 µM. Further, the TGI with SNB-19 CNS was 33.3 µM; in the test on XF 498 CNS it was 32.7 µM; in the test with OVCAR-8 ovarian it was 45.2 µM; in the test on DLD-1 colon it was 32.9 µM.
Regarding `NNC(=S)N/N=C(/C(=O)Nc1ccc([N+](=O)[O-])cc1)c1nc2ccc([N+](=O)[O-])cc2[nH]c1=O`, the TGI with DMS 114 small cell lung, in the test on U251 CNS, in the test with IGROV1 ovarian, in the test with HL-60(TB) leukemia, with SR leukemia and in the test on XF 498 CNS was above 100 µM each time. The TGI in the test with OVCAR-8 ovarian and in the test with DLD-1 colon was above 100 µM in each case.
Turning to `O=C(CC(=O)C1CCOC1=O)C(=O)Nc1ccc(Cl)cc1` (stereo not given), the TGI with KM20L2 colon, in the test with DMS 114 small cell lung, in the test with OVCAR-3 ovarian, in the test with U251 CNS, in the test on IGROV1 ovarian and with HL-60(TB) leukemia was above 100 µM throughout. The TGI with SNB-19 CNS, in the test with OVCAR-8 ovarian and in the test with DLD-1 colon was above 100 µM in each case.
For `O=C1NN=C(c2ccc([N+](=O)[O-])cc2)C1n1nc(-c2ccccc2)c2ccccc2c1=O` (stereo not given), the TGI in the test on KM20L2 colon was above 100 µM; with OVCAR-3 ovarian, above 100 µM; with U251 CNS, above 100 µM; in the test with IGROV1 ovarian it was above 100 µM; with HL-60(TB) leukemia, above 64.4 µM; in the test on SR leukemia it was above 100 µM. Also, the TGI with SNB-19 CNS was above 100 µM; in the test on XF 498 CNS it was above 100 µM; with OVCAR-8 ovarian, above 100 µM; with DLD-1 colon, above 78.7 µM.
